In US11208387B2, “Macrocyclic broad spectrum antibiotics” (Genentech, Inc., priority 2019, dated 2021):
pIC50: −log10 of the molar value. ≈ marks a conversion by molar mass, not a printed value. Where two headings read alike, the source gives them in different places.

Key:
[1] = system: isolated liver mitochondria; experiment: Mitochondrial oxygen consumption rate (OCR) assay; format: biochemical, Sprague-Dawley rats; conditions: isolated rat liver mitochondria, state 3 (S3) respiration
From the text: Male Sprague-Dawley rats (8-10 weeks of age) were euthanized with an overdose of carbon dioxide. The liver was rapidly excised and placed in ice-cold phosphate-buffered saline (PBS) before isolation process. Mitochondria were isolated using the MitoCheck® Mitochondrial Isolation Kit (Cayman Chemical #701010, Ann Arbor, Mich.) according to manufacturer's instructions. In brief, approximately 10-14 grams of liver tissues were finely minced using a pair of scissors, and washed repeatedly with ice-cold PBS, followed by Mito Isolation Buffer. The minced tissues were homogenized with 30 ml Mito Homogenization Buffer in 40 ml dounce homogenizer and a smooth glass grinder. The homogenate was split into two clean 30 ml polycarbonate tubes and centrifuged at 1,000×g, 4° C., for 3 minutes. The supernatant was subjected to further centrifugation at 10,000×g, 4° C., for 10 minutes. The supernatant was discarded and mitochondrial pellet was suspended in Mito Isolation Buffer using a glass stirring rod and stored on ice until use. Protein concentration of mitochondria was determined using a bicinchoninic acid protein assay kit (Thermo Scientific, Waltham, Mass.).
Oxygen consumption was monitored as essentially described by Will et al., “Analysis of mitochondrial function using phosphorescent oxygen-sensitive probes,” Nature Protocols Vol. 1(6) (2006) 2563. Briefly, isolated mitochondria (50 μg mitochondrial proteins/state 3 (S3) of mitochondrial respiration for inhibitor identification, 100 μg/S2 for uncoupler identification) were incubated with compounds in 25 μl of Measurement Buffer (MB: 250 mM sucrose, 15 mM KCl, 1 mM EGTA, 5 mM MgCl2, 30 mM K2HPO4, pH 7.4) including 1% DMSO on ice for 1 hour, then mixed with 25 μl of substrate mixture including an oxygen-sensitive phosphorescent dye (MitoXpress Xtra, Agilent, Santa Clara, Calif.), glutamate (25 mM, G1626, Sigma, St. Louis, Mo.), malate (25 mM, M6413, Sigma), ADP (3.3 mM, A2754, Sigma, only for S3 of mitochondrial respiration), Fatty acid free BSA (0.1%, A0281, Sigma), and a complex II-specific inhibitor TTFA (2 μM, T27006, Sigma for the assessment of complex I-mitochondrial respiration with glutamate/malate) in a black wall/clear bottom 384-well plate. The mixtures were covered with HS mineral oil (Agilent) using the Viaflo 384-channel pipette (Integra, Hudson, N.H.). Oxygen consumption was measured for 30 min at 30° C. using a spectrofluorimeter (FLUOstar Omega, BMG Labtech, Cary, N.C.). In S3, DMSO vehicle control and antimycin A (10 μM) were used to define 0% and 100% inhibition. In S2, DMSO vehicle and FCCP (0.5-1 μM) was used to define 0% and 100% uncoupling, respectively. Area under curve typically in a range of 0-12 min (S3) or 0-24 min (S2) was used for calculations. IC50 or UC50 (uncoupling concentration), a concentration that causes 50% of inhibition or maximal (uncoupling) activation of oxygen consumption, was used to evaluate experimental quality. Data were presented as μM (per 50 μg (S3) or 100 μg (S2) mitochondrial proteins). Compounds with IC50: <100 μM (S3) and/or UC50: <200 μM (S2) were considered as high-risk on mitochondrial toxicity. Compounds with 25-50% changes in inhibition and/or uncoupling were categorized as medium-risk, since compounds with >25% changes are considered as responders.
Toxicity associated with mitochondrial dysfunction has presented a problem for promising potential antibiotics as we as other types of therapeutics. The mitochondrial oxygen consumption rate (OCR) assay is considered a reliable indicator of potential internal organ toxicity issues that may occur with powerful antibiotics. The carboxylate compounds of the invention show unexpected lower toxicity than prior art “glycine nitrile” arylomycin analogs (see, e.g., WO 2018/149419) in the mitochondrial oxygen consumption rate (OCR) assay.

[2] = system: Acinetobacter baumannii ATCC 17978; experiment: Serum MIC, broth micro-dilution; format: cell-based; conditions: Acinetobacter baumannii
Method in brief: (§1)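 Half mouse serum, half cation-adjusted MH II broth (v/v) served as test medium; bacteria at final OD600 0.0005 were exposed to serial 2-fold compound dilutions for 22 h, 35° C, and the MIC was determined per CLSI M07-A8.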

[3] = system: Escherichia coli strain ATCC 25922; experiment: Serum MIC, broth micro-dilution; format: cell-based; conditions: Escherichia coli, read-out: E. coli 25922 Serum MIC
Method in brief: as §1

[4] = system: Klebsiella pneumoniae ATCC 700603; experiment: Serum MIC, broth micro-dilution; format: cell-based; conditions: Klebsiella pneumoniae
Method in brief: as §1

[5] = system: Pseudomonas aeruginosa PA01; experiment: Serum MIC, broth micro-dilution; format: cell-based; conditions: Pseudomonas aeruginosa, read-out: P. aeruginosa 01 Serum MIC
Method in brief: as §1

[6] = ATCC17978, 50% v/v mouse serum, compounds of Table 1, Table 7, read-out: A. baumanii 17978 Serum MIC
[7] = ATCC25922, 50% v/v mouse serum, compounds of Table 1, Table 7
[8] = ATCC700603, 50% v/v mouse serum, compounds of Table 1, Table 7, read-out: K. pneumoniae 700603 Serum MIC
[9] = PA01, 50% v/v mouse serum, compounds of Table 1, Table 7
[10] = ATCC17978, 50% v/v mouse serum in Mueller Hinton II cation adjusted Broth, 35° C., 22 hours, Table 4, read-out: A. baumanii 17978 Serum MIC
[11] = ATCC17978, 50% v/v mouse serum in Mueller Hinton II cation adjusted Broth, 35° C., 22 hours, Table 5, read-out: Acinetobacter baumanii 17978 Serum MIC
[12] = ATCC25922, 50% v/v mouse serum in Mueller Hinton II cation adjusted Broth, 35° C., 22 hours, Table 4
[13] = ATCC700603, 50% v/v mouse serum in Mueller Hinton II cation adjusted Broth, 35° C., 22 hours, Table 4, read-out: K pneumoniae 700603 Serum MIC
[14] = PA01, 50% v/v mouse serum in Mueller Hinton II cation adjusted Broth, 35° C., 22 hours, Table 4
[15] = ATCC17978, 22 h, read-out: A. baumanii 17978 Serum MIC
[16] = ATCC17978, 22 h, read-out: Acinetobacter baumanii 17978 Serum MIC
[17] = ATCC700603, 22 h, read-out: K pneumoniae 700603 Serum MIC

SMILES | pIC50 ([1]; glutamate/malate, Table 3) | MIC [2, 10] | MIC [2, 11] | MIC [3, 12] | MIC [4, 13] | MIC [5, 14] | also measured
Cc1nc(-c2ccc(C(C)(C)C)cc2)nc(C)c1C(=O)N[C@@H](CCN)C(=O)N(C)[C@@H]1C(=O)N[C@@H](C)C(=O)N[C@H](C(=O)NCC#N)Cc2ccc(O)c(c2)-c2cc1ccc2OCCN (racemic) [Example 254] |  |  |  |  |  |  | pIC50 ([1]; compounds of Table 1, Table 6): 4.70; MIC [2, 6]: 9.3 µM (≈ 8.01 µg/mL); MIC [3, 7]: 0.19 µM (≈ 0.164 µg/mL); MIC [4, 8]: 0.73 µM (≈ 0.629 µg/mL); MIC [5, 9]: 13 µM (≈ 11.2 µg/mL)
Cc1nc(-c2ccc(C(C)(C)C)cc2)nc(N)c1C(=O)N[C@@H](CNS(N)(=O)=O)C(=O)N(C)[C@@H]1C(=O)N[C@@H](C)C(=O)N[C@H](C(=O)O)Cc2ccc(OC[C@H](O)CN)c(c2)-c2cc1cc(OC[C@H](O)CN)c2O [Example 2, (8S,11S,14S)-18-hydroxy-11-methyl-14-[methyl-[(2S)-2-[[4-amino-2-(4-tert-butylphenyl)-6-methyl-pyrimidine-5-carbonyl]amino]-3-(sulfamoylamino)-propanoyl]amino]-10,13-dioxo-3,17-bis[(2R)-3-amino-2-hydroxy-propoxy]-9,12-diazatricyclo-[13.3.1.12,6]icosa-1(18),2(20),3,5,15(19), 16-hexaene-8-carboxylic acid] | 3.58 | 11 µM (≈ 11.1 µg/mL) | 11 µM (≈ 11.1 µg/mL) | 0.5 µM (≈ 0.504 µg/mL) | 0.5 µM (≈ 0.504 µg/mL) | 3.3 µM (≈ 3.33 µg/mL) | 
Cc1nc(-c2ccc(OCCC(C)(C)C)cc2)ncc1C(=O)N[C@@H](CNS(N)(=O)=O)C(=O)N(C)[C@@H]1C(=O)N[C@@H](C)C(=O)N[C@H](C(=O)O)Cc2ccc(OC[C@H](O)CN)c(c2)-c2cc1cc(OC[C@H](O)CN)c2O [Example 16, (8S,11S,14S)-18-hydroxy-11-methyl-14-[methyl-[(2S)-2-[[2-[4-(3,3-dimethyl-butoxy)phenyl]-4-methyl-pyrimidine-5-carbonyl]amino]-3-(sulfamoylamino)-propanoyl]amino]-10,13-dioxo-3,17-bis[(2R)-3-amino-2-hydroxy-propoxy]-9,12-diazatricyclo-[13.3.1.12,6]icosa-1(18),2(20),3,5,15(19), 16-hexaene-8-carboxylic acid] | 4.48 |  |  |  |  |  | MIC [2, 15]: 12 µM (≈ 12.4 µg/mL); MIC [2, 16]: 12 µM (≈ 12.4 µg/mL); MIC ([3]; ATCC25922, 22 h): 0.44 µM (≈ 0.456 µg/mL); MIC [4, 17]: 0.63 µM (≈ 0.653 µg/mL); MIC ([5]; PA01, 22 h): 6 µM (≈ 6.22 µg/mL)
Cc1nc(-c2ccc(OCCC(C)(C)C)cc2)nc(N)c1C(=O)N[C@@H](CCN)C(=O)N(C)[C@@H]1C(=O)N[C@@H](C)C(=O)N[C@H](C(=O)O)Cc2ccc(OC[C@H](O)CN)c(c2)-c2cc1cc(OC[C@H](O)CN)c2O [Example 18, (8S,11S,14S)-18-hydroxy-11-methyl-14-[methyl-[(2S)-4-amino-2-[[4-amino-2-[4-(3,3-dimethyl-butoxy)phenyl]-6-methyl-pyrimidine-5-carbonyl]amino]-butanoyl]amino]-10,13-dioxo-3,17-bis[(2R)-3-amino-2-hydroxy-propoxy]-9,12-diazatricyclo-[13.3.1.12,6]icosa-1(18),2(20),3,5,15(19), 16-hexaene-8-carboxylic acid] | 3.92 |  |  |  |  |  | MIC [2, 15]: 8 µM (≈ 7.9 µg/mL); MIC [2, 16]: 8 µM (≈ 7.9 µg/mL); MIC ([3]; ATCC25922, 22 h): 0.25 µM (≈ 0.247 µg/mL); MIC [4, 17]: 0.25 µM (≈ 0.247 µg/mL); MIC ([5]; PA01, 22 h): 4 µM (≈ 3.95 µg/mL)
Cc1nc(-c2ccc(C(C)(C)C)cc2)nc(C)c1C(=O)N[C@@H](CCN)C(=O)N(C)[C@@H]1C(=O)N[C@@H](C)C(=O)N[C@H](C(=O)NCC#N)Cc2ccc(O)c(c2)-c2cc1cc(OCCN)c2OCCN [Example 633] |  |  |  |  |  |  | MIC [2, 6]: 5 µM (≈ 4.6 µg/mL); MIC [3, 7]: 0.063 µM (≈ 0.058 µg/mL); MIC [4, 8]: 0.063 µM (≈ 0.058 µg/mL); MIC [5, 9]: 4 µM (≈ 3.68 µg/mL)

Second part, led by results:

pIC50 ([1]; glutamate/malate, Table 3) | MIC [2, 10] | MIC [2, 11] | MIC [3, 12] | MIC [4, 13] | MIC [5, 14] | SMILES | also measured
< 3.60 | 9.3 µM (≈ 9.37 µg/mL) | 9.3 µM (≈ 9.37 µg/mL) | 0.42 µM (≈ 0.423 µg/mL) | 0.46 µM (≈ 0.463 µg/mL) | 4.3 µM (≈ 4.33 µg/mL) | Cc1nc(-c2ccc(C(C)(C)C)cc2)nc(C)c1C(=O)N[C@@H](CNS(N)(=O)=O)C(=O)N(C)[C@@H]1C(=O)N[C@@H](C)C(=O)N[C@H](C(=O)O)Cc2ccc(OC[C@H](O)CN)c(c2)-c2cc1cc(OC[C@H](O)CN)c2O [Example 7, (8S,11S,14S)-18-hydroxy-11-methyl-14-[methyl-[(2S)-2-[[2-(4-tert-butyl-phenyl)-4,6-dimethyl-pyrimidine-5-carbonyl]amino]-3-(sulfamoylamino)-propanoyl]amino]-10,13-dioxo-3,17-bis[(2R)-3-amino-2-hydroxy-propoxy]-9,12-diazatricyclo-[13.3.1.12,6]icosa-1(18),2(20),3,5,15(19), 16-hexaene-8-carboxylic acid] | 
4.55 | 16 µM (≈ 15.9 µg/mL) | 16 µM (≈ 15.9 µg/mL) | 0.38 µM (≈ 0.377 µg/mL) | 0.5 µM (≈ 0.497 µg/mL) | 7 µM (≈ 6.95 µg/mL) | Cc1nc(-c2ccc(C(C)(C)C)cc2)ncc1C(=O)N[C@@H](CNS(N)(=O)=O)C(=O)N(C)[C@@H]1C(=O)N[C@@H](C)C(=O)N[C@H](C(=O)O)Cc2ccc(OC[C@H](O)CN)c(c2)-c2cc1cc(OC[C@H](O)CN)c2O [Example 8, (8S,11S,14S)-18-hydroxy-11-methyl-14-[methyl-[(2S)-2-[[2-(4-tert-butyl-phenyl)-4-methyl-pyrimidine-5-carbonyl]amino]-3-(sulfamoylamino)-propanoyl]amino]-10,13-dioxo-3,17-bis[(2R)-3-amino-2-hydroxy-propoxy]-9,12-diazatricyclo-[13.3.1.12,6]icosa-1(18),2(20),3,5,15(19), 16-hexaene-8-carboxylic acid] | 
